In patent US20210023113A1, “CONJUGATE OF CYTOTOXIC DRUG AND PRODRUG FORM OF SAID CONJUGATE” (priority 2018, published 2021):

Assays:
[1] = molecular target: T1, β-glucuronidase from Escherichia coli (Escherichia coli, UniProt P05804); experiment: Kinetics of β-glucuronidase-induced release of a cytotoxic drug (general procedure, plasma/phosphate buffer); type: biochemical; details: after 40 minutes of incubation with β-glucuronidase, 50/50 human plasma and potassium phosphate buffer pH 7.0, 25° C.
T1 sequence (P05804 whole entry): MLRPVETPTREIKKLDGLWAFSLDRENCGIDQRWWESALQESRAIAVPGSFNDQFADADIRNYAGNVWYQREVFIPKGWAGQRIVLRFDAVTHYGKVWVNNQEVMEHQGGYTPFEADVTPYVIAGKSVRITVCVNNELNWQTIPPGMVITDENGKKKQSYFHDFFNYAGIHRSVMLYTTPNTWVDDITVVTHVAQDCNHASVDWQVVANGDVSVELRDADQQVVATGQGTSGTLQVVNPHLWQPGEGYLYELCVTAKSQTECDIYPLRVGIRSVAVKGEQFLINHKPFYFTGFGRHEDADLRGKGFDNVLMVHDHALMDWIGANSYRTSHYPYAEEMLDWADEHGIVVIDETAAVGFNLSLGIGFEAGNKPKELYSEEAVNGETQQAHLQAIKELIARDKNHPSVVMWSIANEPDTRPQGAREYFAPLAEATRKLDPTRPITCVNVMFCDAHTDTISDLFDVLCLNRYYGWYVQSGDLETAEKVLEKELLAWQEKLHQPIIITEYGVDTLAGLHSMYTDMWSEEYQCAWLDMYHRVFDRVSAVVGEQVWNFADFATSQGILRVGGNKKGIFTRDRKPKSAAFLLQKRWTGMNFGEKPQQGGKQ
Experimental: General Procedure for the Measurement of the Kinetics of β-glucuronidase-Induced Release of a Cytotoxic Drug • Sample solution of R isomers was prepared by adding 5 μL of compounds R6, R7 or R8 (10 mM in DMSO) to 500 μL of a 50/50 mixture of human plasma and potassium phosphate buffer (0.1M, pH 7.0) and incubating at 37° C. for 20 min. • Sample solution of S isomers was prepared by adding 5 μL of compounds S6, S7 or S8 (10 mM in DMSO) to 500 μL of a 50/50 mixture of human plasma and potassium phosphate buffer (0.1M, pH 7.0) and incubating at 37° C. for 20 min. • Quenching solution (Q) was prepared by adding 50 μL of 1 M aqueous HCl to 1.5 mL of acetonitrile. • β-glucuronidase solution (Glu) was prepared by adding 20 μL of aqueous glycerol solution of β-glucuronidase from Escherichia coli (6.5 mg/mL) to 180 μL of H2O. • Reference solution (Ref) was prepared by adding 5 μL of a corresponding free cytotoxic drug (10 mM in DMSO) to 500 μL of a 50/50 mixture of human plasma and potassium phosphate buffer (0.1M, pH 7.0) and incubating at 37° C. for 20 min.
To each sample and reference solution was added 10 uL of Glu. The resulting mixtures were incubated at 25° C. 45 μL aliquots of each solution were quenched with 155 μL of Q at the precise time points indicated on the graphs (FIGS. 3-5). Quenched aliquots were centrifuged at 15000 g for 5 min and the supernatant was analyzed by LCMS (Method 3) with Selected ion recording set to [M+H]^+ where M corresponds to molecular mass of the free cytotoxic agent.
The amount of released cytotoxic agent at each time point was calculated as (sample peak area)/(reference peak area)×100%.

[2] = molecular target: T1, β-glucuronidase from Escherichia coli; experiment: Kinetics of β-glucuronidase-induced release of MMAE in human plasma; type: biochemical; details: after 7 minutes of incubation with β-glucuronidase, 37° C.
Experimental: Measurement of the Kinetics of β-glucuronidase-Induced Release of MMAE • Sample solution of R isomer was prepared by adding 10 μL of R5 (10 mM in DMSO) to 990 μL of human plasma and incubating at 37° C. for 20 min. • Sample solution of S isomer was prepared by adding 10 μL of S5 (10 mM in DMSO) to 990 μL of human plasma and incubating at 37° C. for 20 min. • Quenching solution (Q) was prepared by adding 50 μL of 1 M aqueous HCl to 1.5 mL of acetonitrile. • β-glucuronidase solution (Glu) was prepared by adding 20 μL of aqueous glycerol solution of β-glucuronidase from Escherichia coli (6.5 mg/mL) to 180 μL of H2O. • Reference solution (Ref) was prepared by adding 10 μL of MMAE (10 mM in DMSO) to 990 μL of human plasma and incubating at 37° C. for 20 min.
To 1 mL of each isomer and reference solution was added 40.9 uL of Glu. The resulting mixtures were incubated at 37° C. 45 μL aliquots of each solution were quenched with 155 μL of Q at the following time points: 1 min, 2 min, 3 min, 4 min, 5 min, 6 min and 7 min. Quenched aliquots were centrifuged at 15000 g for 5 min and the supernatant was analyzed by LCMS (Method 3) with Selected ion recording set to 719 Da (corresponding to [MMAE+H]^+). The amount of released MMAE at each time point was calculated as (sample peak area)/(reference peak area)×100% (FIG. 2).

[3] = Stability of R5 and S5 in aqueous buffer (PBS); type: physicochemical; details: phosphate buffered saline pH 6.0, any time point
Experimental: Measurement of the Stability of R5 and S5 in Aqueous Buffer at pH 7.4 • Sample solution R5-PBS was prepared by adding 20 μL of R5 (10 mM in DMSO) to 180 μL of phosphate buffered saline (pH 7.4). • Sample solution S5-PBS was prepared by adding 20 μL of S5 (10 mM in DMSO) to 180 μL of phosphate buffered saline (pH 7.4). • Samples were incubated at 25° C. and analyzed by LCMS (Method 3) with Selected ion recording set to 924 Da (corresponding to [R5+2H]^2+/2 and [S5+2H]^2+/2) and to 933 Da (the main impurity being formed corresponding to hydrolyzed products [R5+H2O+2H]^2+/2 and [S5+H2O+2H]^2+/2). Samples were injected at the following time points: 0 min, 99 min, 195 min, 291 min, 387 min, 543 min, 699 min, 855 min, 980 min. Peak areas of the samples injected at 0 min were considered as reference peak areas. • % Peak Area was calculated as (924 Da peak area)/((924 Da peak area)+(933 Da peak area))×100%.
The same experiment was carried out in phosphate buffered saline at pH 6.0.

serum albumin = molecular target: T2, serum albumin (Homo sapiens, UniProt P02768); experiment: Plasma-binding kinetics of R5 and S5; type: in vitro ADME; details: 37° C.
T2 construct: adding 10 μL of R5 (10 mM in DMSO) to 990 μL of human plasma and incubating at 37° C; from tissue; host or cells: human plasma
T2 sequence (P02768 25-609): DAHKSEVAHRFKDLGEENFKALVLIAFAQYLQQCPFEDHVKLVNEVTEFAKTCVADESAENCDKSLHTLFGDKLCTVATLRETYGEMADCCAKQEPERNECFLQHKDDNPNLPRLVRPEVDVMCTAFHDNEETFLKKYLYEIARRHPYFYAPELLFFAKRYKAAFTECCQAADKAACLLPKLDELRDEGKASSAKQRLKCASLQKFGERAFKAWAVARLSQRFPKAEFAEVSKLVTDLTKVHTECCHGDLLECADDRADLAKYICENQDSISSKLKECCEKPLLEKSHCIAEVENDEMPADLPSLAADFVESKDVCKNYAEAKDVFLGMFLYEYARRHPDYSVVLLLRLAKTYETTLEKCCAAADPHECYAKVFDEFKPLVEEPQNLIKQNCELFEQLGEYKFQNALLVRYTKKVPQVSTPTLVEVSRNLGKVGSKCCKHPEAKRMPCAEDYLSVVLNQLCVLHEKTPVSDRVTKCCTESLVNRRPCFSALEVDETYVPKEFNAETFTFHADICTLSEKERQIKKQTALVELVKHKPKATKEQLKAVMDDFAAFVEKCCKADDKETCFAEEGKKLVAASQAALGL
Experimental: Plasma-Binding Kinetics of R5 and S5 • Quenching solution (Q) was prepared by adding 50 μL of 1 M aqueous HCl to 1.5 mL of acetonitrile. • Sample solution R-Alb was prepared by adding 10 μL of R5 (10 mM in DMSO) to 990 μL of human plasma and incubating at 37° C. • Sample solution S-Alb was prepared by adding 10 μL of S5 (10 mM in DMSO) to 990 μL of human plasma and incubating at 37° C. • 45 μL aliquots of each sample solution were added to 155 μL of the quenching solution at the following time-points: 0 min, 1 min, 2 min, 3 min, 4 min, 5 min, 6 min, 7 min. • Quenched aliquots were centrifuged at 15000 g for 5 min and the supernatant was analyzed by LCMS (Method 3) with Selected ion recording set to 924 Da (corresponding to [R5+2H]^2+/2 and [S5+2H]^2+/2). Peak areas of the aliquots quenched at 0 min were considered as reference peak areas. • The % remaining free drug at each time point was calculated as (sample peak area)/(reference peak area)×100%.

COc1cccc2c1C(=O)c1c(O)c3c(c(O)c1C2=O)C[C@@](O)(C(=O)CO)C[C@@H]3O[C@H]1C[C@H](NC(=O)O[C@@H](Cc2cn(CCOCCOCCOCCOCCOCCOCCOCCOCCOCCOCCNC(=O)CCCCCN3C(=O)C=CC3=O)nn2)c2ccc(O[C@H]3O[C@@H](C(=O)O)[C@H](O)[C@@H](O)[C@@H]3O)c([N+](=O)[O-])c2)[C@H](O)[C@H](C)O1 [S8]
Doxorubicin released from plasma-bound compound [1]: 80%

CCc1c2c(nc3ccc(OCc4ccc(NC(=O)O[C@@H](Cc5cn(CCOCCOCCOCCOCCOCCOCCOCCOCCOCCOCCNC(=O)CCCCCN6C(=O)C=CC6=O)nn5)c5ccc(O[C@H]6O[C@@H](C(=O)O)[C@H](O)[C@@H](O)[C@@H]6O)c([N+](=O)[O-])c5)cc4)cc13)-c1cc3c(c(=O)n1C2)COC(=O)[C@]3(O)CC [S7]
SN-38 released from plasma-bound compound [1]: 18%

CC[C@H](C)[C@@H]([C@@H](CC(=O)N1CCC[C@H]1[C@H](OC)[C@@H](C)C(=O)N[C@H](C)[C@@H](O)c1ccccc1)OC)N(C)C(=O)[C@@H](NC(=O)[C@H](C(C)C)N(C)C(=O)O[C@@H](Cc1cn(CCOCCOCCOCCOCCOCCOCCOCCOCCOCCOCCNC(=O)CCCCCN2C(=O)C=CC2=O)nn1)c1ccc(O[C@@H]2O[C@H](C(=O)O)[C@@H](O)[C@H](O)[C@H]2O)c([N+](=O)[O-])c1)C(C)C [S5]
MMAE released from plasma-bound compound [2]: 12% | degradation of compound [3]: No degradation | compound bound to serum albumin (serum albumin; after 2 minutes of incubation): about 90% | conversion (binding to serum albumin) (serum albumin; after 4 minutes): total conversion

CC[C@H](C)[C@@H]([C@@H](CC(=O)N1CCC[C@H]1[C@H](OC)[C@@H](C)C(=O)N[C@@H](Cc1ccccc1)C(=O)O)OC)N(C)C(=O)[C@@H](NC(=O)[C@H](C(C)C)N(C)C(=O)O[C@@H](Cc1cn(CCOCCOCCOCCOCCOCCOCCOCCOCCOCCOCCNC(=O)CCCCCN2C(=O)C=CC2=O)nn1)c1ccc(O[C@@H]2O[C@H](C(=O)O)[C@@H](O)[C@H](O)[C@H]2O)c([N+](=O)[O-])c1)C(C)C [S6]
MMAF released from plasma-bound compound [1]: 57%
